Laboratory results reported in patent US11912787B2, “Peptide for skin aging prevention and wrinkle reduction, and composition comprising same” (DERMAFIRM, INC., priority 2019, dated 2024).
Read-outs that look alike come from different tables or passages of the source. Residues, ends and D or L forms follow the SMILES beside them. *: point of attachment. Palmitoyl = CCCCCCCCCCCCCCCC(=O)*

Test system: Fibroblasts
Test: MTT cytotoxicity assay
Assay type: cell-based
Description: In order to examine the cytotoxicity of the novel peptides (GHK-R4 (SEQ ID NO.: 3) and Pal-GHK-R4 (SEQ ID NO.: 4)) according to the Examples of the present invention, MTT assay was performed. As a control, GHK-acetate was used. Fibroblasts were treated with various concentrations of each of the control and the novel peptides, and after 24 hours, treated with MTT reagent. Next, the absorbance was measured, and the viability of the cells was calculated based on the absorbance.

Row | Compound | IC30 (cell viability, MTT) | IC30 (cell viability, MTT) (fibroblasts, 24 hours treatment)
1 | CCCCCCCCCCCCCCCC(=O)NCC(=O)N[C@@H](Cc1c[nH]cn1)C(=O)N[C@@H](CCCCN)C(=O)N[C@@H](CCCNC(=N)N)C(=O)N[C@@H](CCCNC(=N)N)C(=O)N[C@@H](CCCNC(=N)N)C(=O)N[C@@H](CCCNC(=N)N)C(=O)O [Pal-GHK-R4, Pal-GlyHisLys-ArgArgArgArg-OH] (Palmitoyl-GHKRRRR-OH) | ~0.0087 mM | 
2 | NCCCC[C@H](NC(=O)[C@H](Cc1cnc[nH]1)NC(=O)CN)C(=O)O [GHK-acetate, glycine-histidyl-lysine tripeptide, reference compound] (H-Gly-His-Lys-OH) | about 31.71 mM | 
3 | H-GHKRRRR-OH [GHK-R4, H-GlyHisLys-ArgArgArgArg-OH] |  | ~5.32 mM
